Test results: US7704992B2, “Hepatitis C virus inhibitors” (Bristol-Myers Squibb Company, priority 2008, dated 2010)

Tested on: HCV 1b-377-neo replicon cells
Test: HCV Replicon assay, HCV 1b genotype
Type: cell-based
Details: Hepatitis C virus, class symbol, read-out: EC50 range against HCV 1b
Procedure: An HCV Replicon assay was utilized in the present disclosure, and was prepared, conducted and validated as described in commonly owned PCT/US2006/022197 and in O'Boyle et. al. Antimicrob Agents Chemother. 2005 April; 49(4): 1346-53.
HCV 1b-377-neo replicon cells were used to test the currently described compound series as well as cells resistant to compound A containing a Y2065H mutation in NS5A (described in application PCT/US2006/022197). The compounds tested were determined to have more than 10-fold less inhibitory activity on cells containing the mutation than wild-type cells indicating a related mechanism of action between the two compound series. Thus, the compounds of the present disclosure can be effective to inhibit the function of the HCV NS5A protein and are understood to be as effective in combinations as previously described in application PCT/US2006/022197 and commonly owned WO/04014852. Further, the compounds of the present disclosure can be effective against the HCV 1b genotype. It should also be understood that the compounds of the present disclosure can inhibit multiple genotypes of HCV. […] In one embodiment compounds of the present disclosure are active against the 1a, 1b, 2a, 2b, 3a, 4a, and 5a genotypes.

For `CCN(CC)C(C(=O)N1CCC[C@H]1c1ncc(-c2ccc3c(c2)CN(C)Cc2cc(-c4cnc([C@@H]5CCCN5C(=O)C(c5ccccc5)N(CC)CC)[nH]4)ccc2-3)[nH]1)c1ccccc1` (stereo in doubt) [Example 7, (1S,1′S) -2,2′-((6-methyl-6,7-dihydro-5H-dibenzo[c,e]azepine-3,9-diyl)bis(1H-imidazole-4,2-diyl(2S)-2,1-pyrrolidinediyl)) bis(N,N-diethyl-2-oxo-1-phenylethanamine)], which EC50 is on record?
The EC50 was 101 to 999 pM.

For `CCN(CC)C(C(=O)N1CCC[C@H]1c1ncc(-c2ccc3c(c2)COCc2cc(-c4cnc([C@@H]5CCCN5C(=O)C(c5ccccc5)N(CC)CC)[nH]4)ccc2-3)[nH]1)c1ccccc1` (stereo in doubt) [Example 12, (1S,1′S)-2,2′-(5,7-dihydrodibenzo[c,e]oxepine-3,9-diylbis(1H-imidazole-4,2-diyl(2S)-2,1-pyrrolidinediyl))bis(N,N-diethyl-2-oxo-1-phenylethanamine)], which EC50 is on record?
Its EC50 is 101 to 999 pM.

For `COC(=O)N[C@H](C(=O)N1CCC[C@H]1c1ncc(-c2ccc3c(c2)C(O)c2cc(-c4cnc([C@@H]5CCCN5C(=O)[C@@H](NC(=O)OC)C(C)C)[nH]4)ccc2-3)[nH]1)C(C)C` [Example 2, methyl ((1S)-1-(((2S)-2-(5-(9-hydroxy-7-(2-((2S)-1-((2S)-2-((methoxycarbonyl)amino)-3-methylbutanoyl)-2-pyrrolidinyl)-1H-imidazol-5-yl)-9H-fluoren-2-yl)-1H-imidazol-2-yl)-1-pyrrolidinyl)carbonyl)-2-methylpropyl)carbamate], which EC50 is on record?
Its EC50 is 101 to 999 pM.

Which EC50 does the source give for `COC(=O)N[C@H](C(=O)N1CCC[C@H]1c1ncc(-c2ccc3c(c2)C(N(C)C)c2cc(-c4cnc([C@@H]5CCCN5C(=O)[C@@H](NC(=O)OC)C(C)C)[nH]4)ccc2-3)[nH]1)C(C)C` [Example 3, methyl ((1S)-1-(((2S)-2-(5-(9-(dimethylamino)-7-(2-((2S)-1-((2S)-2-((methoxycarbonyl)amino)-3-methylbutanoyl)-2-pyrrolidinyl)-1H-imidazol-5-yl)-9H-fluoren-2-yl)-1H-imidazol-2-yl)-1-pyrrolidinyl)carbonyl)-2-methylpropyl)carbamate] here?
The EC50 was 101 to 999 pM.

`COC(=O)N[C@H](C(=O)N1CCC[C@H]1c1ncc(-c2ccc3c(c2)Cc2cc(-c4cnc([C@@H]5CCCN5C(=O)[C@@H](NC(=O)OC)C(C)C)[nH]4)ccc2-3)[nH]1)C(C)C` [Example 4, methyl ((1S)-1-(((2S)-2-(5-(7-(2-((2S)-1-((2S)-2-((methoxycarbonyl)amino)-3-methylbutanoyl)-2-pyrrolidinyl)-1H-imidazol-5-yl)-9H-fluoren-2-yl)-1H-imidazol-2-yl)-1-pyrrolidinyl)carbonyl)-2-methylpropyl)carbamate] was tested. Which EC50 did it give?
Its EC50 is 1 to 100 pM.

For `COC(=O)N[C@H](C(=O)N1CCC[C@H]1c1ncc(-c2ccc3c(c2)Cc2cc(-c4cnc([C@@H]5CCCN5C(=O)[C@@H](NC(=O)OC)[C@@H](C)OC)[nH]4)ccc2-3)[nH]1)[C@@H](C)OC` [Example 5, methyl ((1S,2R)-2-methoxy-1-(((2S)-2-(5-(7-(2-((2S)-1-(N-(methoxycarbonyl)-O-methyl-L-threonyl)-2-pyrrolidinyl)-1H-imidazol-5-yl)-9H-fluoren-2-yl)-1H-imidazol-2-yl)-1-pyrrolidinyl)carbonyl)propyl)carbamate], which EC50 is on record?
The EC50 was 1 to 100 pM.

Same assay, conditions: Hepatitis C virus, value in pM, read-out: EC50 value against HCV 1b

With `COC(=O)N[C@H](C(=O)N1CCC[C@H]1c1ncc(-c2ccc3c(c2)C(=O)c2cc(-c4cnc([C@@H]5CCCN5C(=O)[C@@H](NC(=O)OC)C(C)C)[nH]4)ccc2-3)[nH]1)C(C)C` [Example 1, methyl ((1S)-1-(((2S)-2-(5-(7-(2-((2S)-1-((2S)-2-((methoxycarbonyl)amino)-3-methylbutanoyl)-2-pyrrolidinyl)-1H-imidazol-5-yl)-9-oxo-9H-fluoren-2-yl)-1H-imidazol-2-yl)-1-pyrrolidinyl)carbonyl)-2-methylpropyl)carbamate] as the compound, how does the EC50 read?
Its EC50 is 9 pM.
